From patent US5756532A, “Aminomethyl-2 3 8 9-tetrahydro-7H-1 4-dioxino[2 3-E]-indol-8-ones and derivatives” (American Home Products Corporation, priority 1996, dated 1998)

How the values were obtained:
[1] = test system: dopamine autoreceptor; test: GBL model: effect on synthesis of dopamine (inhibition of dopa accumulation); type: in vivo, rat (male, Sprague-Dawley); conditions: rat, 10 mg/kg, sc; GBL 750 mg/kg ip, NSD-1015 100 mg/kg ip
Protocol: The effect of the compounds of the invention on the synthesis of dopamine was established by the method of Walters and Roth, Naunyn-Schmiedeberg's Arch. Pharmacol. 296:5-14, 1976, in which rats (male, Sprague-Dawley, Charles River, 200-350 g) were administered vehicle or test drug ten minutes prior to the administration of gamma butyrolactone (GBL; 750 mg/kg, ip to inhibit dopaminergic impulse flow) and 20 minutes prior to NSD-1015 (100 mg/kg, ip to prevent the conversion of dopa to dopamine). Thirty minutes after NSD-1015 all rats were decapitated and the nucleus accumbens and the striatum were removed for analysis. Following perchloric acid extraction of the tissue, the extracts were placed over alumina columns to collect and concentrate dopa and other catechols. This eluate was then subjected to HPLC analysis using electrochemical detection to quantify the levels of dopa present. Dopamine autoreceptor agonists, under the conditions used above, inhibit dopa accumulation. […]

[2] = molecular target: T1, dopamine D2 receptor (Rattus norvegicus, UniProt P61169); test: Affinity for the dopamine D2 receptor (3H-quinpirole, rat striatal brain tissue homogenate); type: binding; conditions: homogenized rat striatal brain tissue
T1 construct: homogenized rat striatal brain tissue; from tissue; host or cells: rat striatum (homogenate)
T1 sequence (P61169 whole entry): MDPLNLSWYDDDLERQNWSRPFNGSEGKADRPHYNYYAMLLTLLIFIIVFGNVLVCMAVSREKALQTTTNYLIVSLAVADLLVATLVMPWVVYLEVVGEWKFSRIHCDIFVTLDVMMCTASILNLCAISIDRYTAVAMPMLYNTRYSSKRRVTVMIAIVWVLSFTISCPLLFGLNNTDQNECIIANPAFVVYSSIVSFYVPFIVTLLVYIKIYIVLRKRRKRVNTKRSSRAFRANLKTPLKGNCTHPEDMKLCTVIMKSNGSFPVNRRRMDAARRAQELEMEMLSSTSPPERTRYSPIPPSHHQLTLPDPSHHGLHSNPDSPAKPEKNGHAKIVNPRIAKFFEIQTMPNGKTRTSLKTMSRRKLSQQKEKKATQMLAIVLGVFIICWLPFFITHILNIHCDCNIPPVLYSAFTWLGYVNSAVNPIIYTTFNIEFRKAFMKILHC
Protocol: Affinity for the dopamine D2 receptor was established by a modification of the standard experimental test procedure of Seemen and Schaus, European Journal of Pharmacology 203: 105-109, 1991, wherein homogenized rat striatal brain tissue is incubated with ^3 H-quinpirole and various concentrations of test compound, filtered and washed and counted in a Betaplate scintillation counter.

[3] = test system: mouse locomotor activity; test: Reduction of mouse locomotor activity (hypolocomotion); type: in vivo, mouse (male, CF-1); conditions: 20 min, sc, horizontal activity counts collected 10 to 20 minutes after dosing
Protocol: The antipsychotic activity of the compounds of the invention was further established by a determination of the compounds' ability to reduce mouse locomotor activity according to the method of Martin and Bendensky, J. Pharmacol. Exp. Therap. 229: 706-711, 1984, in which mice (male, CF-1, Charles River, 20-30 g) were injected with vehicle or various doses of each drug and locomotor activity was measured for 30 minutes using automated infrared activity monitors (Omnitech-8×8 inch open field) located in a darkened room. ED50 's were calculated from the horizontal activity counts collected from 10 to 20 minutes after dosing using a nonlinear regression analysis with inverse prediction.

Row | SMILES | inhibition of dopa accumulation [1] [%] | IC50 [2] [nM] | ED50 [3] [µg/kg]
1 | O=C1Cc2c(ccc3c2O[C@@H](CNCc2ccccc2)CO3)N1 [Example 1] | 67.5 | 0.37 | 3.1
2 | O=C1Cc2c(ccc3c2O[C@@H](CNCc2cccs2)CO3)N1 [Example 12, 2-{[(Thionphen-2-ylmethyl)-amino]-methyl}-2,3,8,9-tetrahydro-7H-1,4-dioxino[2,3-e]indol-8-one] | – | 0.51 | 0.5
3 | Cc1ccc(CNC[C@H]2COc3ccc4c(c3O2)CC(=O)N4)cc1 [Example 7] | – | 0.34 | 5
